Test results from article PMC6013238, “Development of novel NEMO-binding domain mimetics for inhibiting IKK/NF-κB activation” (PLoS Biology, 2018).
Values joined by “and” are separate entries in the source; they are usually repeats but may differ in a detail not shown here. Identical values can stand only once. Like-named read-outs stand apart in the source and are kept apart here.

Experiments:
mdx mice = assay: Chronic treatment of mdx mice, forelimb grip strength test; assay type: in vivo, mouse; details: Fig 7G, single mice
From the text: Fig 7 NBD mimetics improve muscular pathology and grip strength in mdx mice. (A) Shown is the treatment regimen with NBD mimetics in mdx mice. (B) Hematoxylin–eosin staining of TA muscle from 7-wk-old, treated or untreated mdx mice. Images were taken at magnification of 20×. Representative images were shown for each treatment group. […] (E) TA muscle from 7-wk-old, treated or untreated mdx mice was stained with laminin by IHC to outline myofibers. Overall images of TA muscle were shown on the left side, and the inset panel images were shown on the right side. (F) Quantitation of minimum Feret diameter in centrally and noncentrally nucleated myofibers. (G) Forelimb force determined by grip strength test. Five-wk-old (2 wk post treatment) and 7-wk-old (4 wk post treatment) mdx mice, treated or untreated, were tested for forelimb grip strength. Five sequential tests were performed, and the force was normalized to body weight. Data were shown as mean +/− SEM. Dosages used are as follows: SR12343 (30 mg/kg), SR12460 (30 mg/kg), and 8K-NBD peptide (10 mg/kg). n = 6–7 each group. *P < 0.05, **P < 0.01. Underlying data can be found in S1 Data. eMyHC, embryonic myosin heavy chain; IHC, immunohistochemistry; NBD, NEMO-binding domain; NEMO, NF-κB essential modulator; Pax7, paired box protein 7; qRT-PCR, quantitative real-time polymerase chain reaction; TA, tibialis anterior. To determine whether the NBD mimetics improved muscle strength, grip strength was measured 2 wk and 4 wk post treatment to assess forelimb strength (Fig 7G). […] Seven-wk-old treated or untreated mdx mice were measured for forelimb grip strength by using a digital grip strength meter paired with a metal grid (Bioseb, Vitrolles, France). Mice were allowed to grip the metal grid tightly, and readings were obtained by gently pulling the tail backward until release. Five sequential measurements were performed, and the average force was calculated.

[1] = Plasma and tissue concentrations 2 h after a single i.p. injection; assay type: in vivo, mouse; details: for concentration at 2 h: male, C57BL/6J, mouse, ip, 10 mg/kg
Description: To determine the stability of the NBD mimetics in vivo, their levels were measured in the plasma of mice 2 h post i.p. injection with 10 mg/kg of each compound. The concentration of SR12460 was very high in plasma (>6.5 μg/mL; 20 μM), while levels in brain, muscle, spleen, and liver were lower. SR12343 and SR12454 had lower plasma concentrations, with SR12343 showing a higher level in liver and SR12454 showing higher concentrations in muscle and spleen. The level of SR11481 was undetectable in plasma and tissues (Fig 6A).
Fig 6 Newly identified NBD mimetics suppress LPS-induced acute inflammation in vivo. (A) The bioavailability property of SR12460, SR12343, SR12454, and SR11481. Concentrations of NBD mimetics were determined in plasma, brain, muscle, spleen, and liver 2 h post a single i.p. injection of 10 mg/kg of drugs; n = 3 per group. (B) Shown is the model to induce LPS-mediated acute inflammation and the treatment regimen with NBD mimetics. Mouse image via http://www.clker.com/clipart-mice-blank.html (copyright-free). (C) NBD mimetics suppressed LPS-induced acute inflammation in liver and lung by down-regulating NF-κB target gene expression. Vehicle, SR12343, SR12460, and 8K-NBD peptide were dosed at 10 mg/kg 30 min prior to the LPS treatment. Acute inflammation was induced by i.p. injection of 10 mg/kg LPS. Lung and liver were collected 2–4 h post injection, and mRNA was extracted for qRT-PCR analysis. (D, E) Western blot analysis was performed to probe for the expression of p-IκBα and COX-2 at protein level in liver and lung tissues. (F) Serum levels of IL-6 were determine by ELISA. n = 3–8 each group. *P < 0.05, **P < 0.01. Underlying data can be found in S1 Data. COX-2, cyclooxygenase 2; IL-6, interleukin 6; i.p., intraperitoneal; LPS, lipopolysaccharide; NBD, NEMO-binding domain; n.d., nondetectable; NEMO, NF-κB essential modulator; NF-κB, nuclear factor κB; qRT-PCR, quantitative real-time polymerase chain reaction. TEXT PRINTED IN THE PICTURE: (A) SR11481: Concentration (ng/ml): n.d. (plasma)
The pharmacokinetic profile of the NBD mimetics was determined in male C57BL/6J mice (n = 3). The drugs were formulated in 10:10:80 of DMSO:Tween 80:water and were dosed by i.p. injection at a final dose of 10 mg/kg. Blood, brain, muscle, spleen, and liver were collected 2 h post treatment and were analyzed by mass spectrometry by following a protocol previously described.

[2] = Mouse PK, i.v. and oral gavage; assay type: in vivo; details: for bioavailability: PO 10mg/Kg versus IV, Avg.
Description: Supplementary file pbio.2004663.s002.tif: S1 Fig IC50 and the complete pharmacokinetic profiles of NBD mimetics. (A) Dose-dependent curve of NBD mimetics ranging from 0 to 150 μM was determined by NF-κB luciferase assays in HEK293 cells. (B) Complete pharmacokinetic profiles of SR12460 and SR12343 administered i.v. or by oral gavage in mice. Underlying data can be found in S1 Data. AUC%Extrap, percentage of the area under the curve extrapolated to infinity from Tlast to infinity; AUCINF_obs, area under the curve from 0 to infinity; AUClast, area under the curve from the time of dosing to the last measurable concentration; Cmax, maximum observed concentration; Clobs, total serum clearance; HEK, human embryonic kidney 293 cells; IC50, half maximal inhibitory concentration; NBD, NEMO-binding domain; NEMO, NF-κB essential modulator; NF-κB, nuclear factor κB; T1/2, half-life; Tmax, time of maximum concentration. (TIF) Click here for additional data file.

[3] = 2 h post single i.p. 10 mg/kg, single mice
[4] = plasma, 2 h post single i.p. 10 mg/kg, single mice, read-out: Concentration in plasma
[5] = spleen, 2 h post single i.p. 10 mg/kg, single mice, read-out: Concentration in spleen
[6] = PO 10mg/Kg, single mice and Avg., 10 mg/kg
[7] = PO 10mg/Kg, single mice and Avg., 10 mg/kg, mean
[8] = mouse, serum, po, 10 mg/kg, PO 10mg/Kg, single mice and Avg.
[9] = IV 2mg/Kg, single mice and Avg., 2 mg/kg
[10] = IV 2mg/Kg, single mice and Avg., 2 mg/kg, mean

O=C(CNc1ccc(Cl)cn1)NCCc1cccc(Br)c1 [SR12343]
Forelimb grip strength, force normalized to body weight (mdx mice; 2 week post treatment): significantly improved forelimb strength
Forelimb grip strength, force normalized to body weight (mdx mice; 2 week post treatment, listed as SR 12343): 3.61 and 3.7248 and 3.659 and 4.054
Forelimb grip strength, force normalized to body weight (mdx mice; 4 week post treatment): 4.866 and 4.5019 and 4.825 and 4.175 and 4.644 and 3.675 and 4.427
Concentration in brain [1, 3]: 45.7 ng/mL and 29.2 ng/mL
Concentration in plasma [1, 3]: 14.7 ng/mL and 8.4 ng/mL
Concentration in spleen [1, 3]: 26.6 ng/mL and 25.1 ng/mL
concentration at 2 h ([1]; brain, 2 h post single i.p. 10 mg/kg, single mice, read-out: Concentration in brain): 31.8 ng/mL
concentration at 2 h [1, 4]: 14.3 ng/mL
concentration at 2 h [1, 5]: 24.7 ng/mL
AUC %Extrap ([2]; IV 1mg/Kg, single mice and Avg., 1 mg/kg): 0.68% and 0.92% and 0.30%
AUC %Extrap ([2]; IV 1mg/Kg, single mice and Avg., 1 mg/kg, mean): 0.63%
AUC %Extrap [2, 6]: 0.51% and 0.40% and 0.32%
AUCINF_obs [2, 6]: 11013 ng·min/mL and 20121 ng·min/mL
Cl_obs [2, 6]: 862.00 mL/min/kg and 908.01 mL/min/kg and 497.00 mL/min/kg
T1/2 [2, 6]: 0.50 h
AUC %Extrap [2, 7]: 0.41%
AUCINF_obs [2, 7]: 14245 ng·min/mL
Cl_obs [2, 7]: 755.67 mL/min/kg
T1/2 [2, 7]: 0.53 h
Oral activity (comparison) ([2]; S1B Fig): not as orally active as SR123460
Tmax ([2]; mouse, serum, iv, 1 mg/kg, IV 1mg/Kg, single mice and Avg., read-out: Tmax): 0.08 h
AUC(0-t) [2, 8]: 192 ng·h/mL and 0.52 µM·h
Cmax [2, 8]: 523 ng/mL and 1.43 µM
half-life [2, 8]: 0.58 h
AUC(0-inf) ([2]; mouse, serum, po, 10 mg/kg, PO 10mg/Kg, single mice and Avg., read-out: AUCINF_obs (converted)): 193 ng·h/mL
bioavailability ([2]; mouse, serum): 0.86%

O=C(CNCCc1cc(F)cc(F)c1)Nc1ccc(Cl)cn1 [SR12460]
Forelimb grip strength, force normalized to body weight (mdx mice; 2 week post treatment): 5.738 and 3.226 and 3.35
Forelimb grip strength, force normalized to body weight (mdx mice; 4 week post treatment): 5.455 and 4.515 and 5.487 and 3.928 and 4.07 and 4.448
Concentration in liver [1, 3]: 265 ng/mL and 390 ng/mL
Concentration in muscle [1, 3]: 602 ng/mL and 852 ng/mL
Concentration in plasma [1, 3]: 5470 ng/mL and 7970 ng/mL
Concentration in spleen [1, 3]: 905 ng/mL and 1250 ng/mL
concentration at 2 h ([1]; liver, 2 h post single i.p. 10 mg/kg, single mice, read-out: Concentration in liver): 442 ng/mL
concentration at 2 h ([1]; muscle, 2 h post single i.p. 10 mg/kg, single mice, read-out: Concentration in muscle): 846 ng/mL
concentration at 2 h ([1]; plasma, 2 h post i.p. 10 mg/kg, read-out: Concentration in plasma): > 6500 ng/mL and 20 µM
concentration at 2 h [1, 4]: 6520 ng/mL
concentration at 2 h [1, 5]: 930 ng/mL
AUC %Extrap [2, 9]: 17.95% and 11.52%
MRTINF_obs [2, 9]: 3.50 h
T1/2 [2, 9]: 2.57 h
Vss_obs [2, 9]: 0.17 L/kg and 0.30 L/kg
AUC %Extrap [2, 10]: 14.74%
MRTINF_obs [2, 10]: 3.99 h
T1/2 [2, 10]: 2.99 h
Vss_obs [2, 10]: 0.23 L/kg
T1/2 [2, 6]: 1.99 h and 1.74 h
Tmax [2, 6]: 1.00 h
T1/2 [2, 7]: 2.35 h
Tmax [2, 7]: 0.67 h
half-life ([2]; mouse, serum, iv, 2 mg/kg, IV 2mg/Kg, single mice and Avg.): 3.42 h
MRT inf ([2]; mouse, serum, iv, 2 mg/kg, IV 2mg/Kg, single mice and Avg., read-out: MRTINF_obs): 4.49 h
AUC(0-t) [2, 8]: 47600 ng·h/mL and 146 µM·h
Cmax [2, 8]: 11200 ng/mL and 34.5 µM
half-life [2, 8]: 3.31 h
Tmax ([2]; mouse, serum, po, 10 mg/kg, PO 10mg/Kg, single mice and Avg., read-out: Tmax): 0.5 h
bioavailability ([2]; mouse, serum): 20.1%
